Experimental data as given in patent US6534542B2, “(2-hydroxy)ethyl-thioureas useful as modulators of α2B adrenergic receptors” (Allergen Sales, Inc., priority 2001, dated 2003).

What was measured:
alpha2B receptor = biological target: T1, alpha2B receptor (Homo sapiens, UniProt P18089); experiment: Receptor Selection and Amplification Technology (RSAT) assay, alpha2B; format: cell-based; conditions: NIH-3T3 cells; for EC50: NA = not active at concentrations less than 10 micromolar, read-out: RSAT EC50 (nM) Alpha 2B; for fraction of activity of the standard (brimonidine) attained, Alpha 2B (number in parenthesis): ratio of maximal effect to that of standard full agonist brimonidine
T1 construct: expressed in transfected cells; host or cells: NIH-3T3
T1 sequence (P18089 1-450): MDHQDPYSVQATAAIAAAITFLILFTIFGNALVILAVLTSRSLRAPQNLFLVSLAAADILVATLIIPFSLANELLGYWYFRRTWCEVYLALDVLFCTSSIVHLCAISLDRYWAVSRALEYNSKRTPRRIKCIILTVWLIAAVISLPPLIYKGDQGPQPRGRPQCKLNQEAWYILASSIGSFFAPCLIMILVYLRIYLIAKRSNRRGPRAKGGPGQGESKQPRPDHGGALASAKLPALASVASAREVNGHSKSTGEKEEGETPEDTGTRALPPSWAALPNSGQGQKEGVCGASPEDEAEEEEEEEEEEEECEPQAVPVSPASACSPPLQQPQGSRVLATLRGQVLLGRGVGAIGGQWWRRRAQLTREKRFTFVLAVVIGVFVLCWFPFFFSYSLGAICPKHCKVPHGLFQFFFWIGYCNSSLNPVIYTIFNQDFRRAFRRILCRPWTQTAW
From the text: (§1) The compounds of the invention are agonists of α2 adrenergic receptors, particularly they tend to be specific or selective agonists of α2B and/or to a lesser extent α2C adrenergic receptors, in preference over α2A adrenergic receptors. […] Al., 1995, Pharmacol. Toxicol. 76, pp. 308-311 (incorporated herein by reference) and is also described below. Another reference pertinent to this assay is Conklin et al. (1993) Nature 363:274-6, also incorporated herein by reference.
(§2) The RSAT assay measures a receptor-mediated loss of contact inhibition that results in selective proliferation of receptor-containing cells in a mixed population of confluent cells. The increase in cell number is assessed with an appropriate transfected marker gene such as β-galactosidase, the activity of which can be easily measured in a 96-well format. Receptors that activate the G protein, Gq, elicit this response. Alpha2 receptors, which normally couple to Gi, activate the RSAT response when coexpressed with a hybrid Gq protein that has a Gi receptor recognition domain, called Gq/i5^2.
(§3) NIH-3T3 cells are plated at a density of 2×10^6 cells in 15 cm dishes and maintained in Dulbecco's modified Eagle's medium supplemented with 10% calf serum. One day later, cells are cotransfected by calcium phosphate precipitation with mammalian expression plasmids encoding p-SV-β-galactosidase (5-10 μg), receptor (1-2 μg) and G protein (1-2 μg). 40 μg salmon sperm DNA may also be included in the transfection mixture. Fresh media is added on the following day and 1-2 days later, cells are harvested and frozen in 50 assay aliquots. Cells are thawed and 100 μl added to 100 μl aliquots of various concentrations of drugs in triplicate in 96-well dishes. Incubations continue 72-96 hr at 37°. After washing with phosphate-buffered saline, β-galactosidase enzyme activity is determined by adding 200 μl of the chromogenic substrate (consisting of 3.5 mM o-nitrophenyl-β-D-galactopyranoside and 0.5% nonidet P-40 in phosphate buffered saline), incubating overnight at 30 and measuring optical density at 420 nm. The absorbance is a measure of enzyme activity, which depends on cell number and reflects a receptor-mediated cell proliferation. The EC50 and maximal effect of each drug at each alpha2 receptor is determined. The efficacy or intrinsic activity is calculated as a ratio of the maximal effect of the drug to the maximal effect of a standard full agonist for each receptor subtype. Brimonidine, also called […], the chemical structure of which is shown below, is used as the standard agonist for the alpha2A, alpha2B and alpha2C receptors. [drawing 6]
(§4) The results of the RSAT assay with several exemplary compounds of the invention are disclosed in Table 3. […] NA stands for “not active” at concentrations less than 10 micromolar. As is known EC50 is the concentration at which half of a given compound's maximal activity is observed. It can be seen from the table that the compounds of the invention are specific or selective agonists of α2B and/or α2C adrenergic receptors, with no agonist like activity or only with insignificant agonist-like activity on α2A receptors.

[1] = test system: rats with ligated L5 and L6 spinal nerves; experiment: Alleviation of chronic pain: tactile allodynia after L5/L6 spinal nerve ligation (von Frey hairs); format: in vivo, rat; conditions: 30 minutes after administration, ±SEM
From the text: A model for chronic pain (in particular peripheral neuropathy such as causalgia) involves the surgical ligation of the L5 (and optionally the L6) spinal nerves on one side in experimental animals. Rats recovering from the surgery gain weight and display a level of general activity similar to that of normal rats. However, these rats develop abnormalities of the foot, wherein the hindpaw is moderately everted and the toes are held together. More importantly, the hindpaw on the side affected by the surgery appears to become sensitive to pain from low-threshold mechanical stimuli, such as that producing a faint sensation of touch in a human, within about 1 week following surgery. This sensitivity to normally non-painful touch is called “tactile allodynia” and lasts for at least two months. The response includes lifting the affected hindpaw to escape from the stimulus, licking the paw and holding it in the air for many seconds. None of these responses is normally seen in the control group.
Rats are anesthetized before surgery. The surgical site is shaved and prepared either with betadine or Novacaine. Incision is made from the thoracic vertebra XIII down toward the sacrum. Muscle tissue is separated from the spinal vertebra (left side) at the L4-S2 levels. The L6 vertebra is located and the transyerse process is carefully removed with a small rongeur to expose the L4-L6 spinal nerves. The L5 and L6 spinal nerves are isolated and tightly ligated with 6-0 silk thread. The same procedure is done on the right side as a control, except no ligation of the spinal nerves is performed. A complete hemostasis is confirmed, then the wounds are sutured. A small amount of antibiotic ointment is applied to the incised area, and the rat is transferred to the recovery plastic cage under a regulated heat-temperature lamp. On the day of the experiment, at least seven days after the surgery, typically six rats per test group are administered the test drugs by intraperitoneal (i.p.) injection or oral gavage. For i.p. injection, the compounds are formulated in approximately 10 to 50% DMSO and given in a volume of 1 ml/kg body weight.
Tactile allodynia is measured prior to and 30 minutes after drug administration using von Frey hairs that are a series of fine hairs with incremental differences in stiffness. Rats are placed in a plastic cage with a wire mesh bottom and allowed to acclimate for approximately 30 minutes. The von Frey hairs are applied perpendicularly through the mesh to the mid-plantar region of the rats' hindpaw with sufficient force to cause slight buckling and held for 6-8 seconds. The applied force has been calculated to range from 0.41 to 15.1 grams. If the paw is sharply withdrawn, it is considered a positive response. A normal animal will not respond to stimuli in this range, but a surgically ligated paw will be withdrawn in response to a 1-2 gram hair. The 50% paw withdrawal threshold is determined using the method of Dixon, […]. The post-drug threshold is compared to the pre-drug threshold and the percent reversal of tactile sensitivity is calculated based on a normal threshold of 15.1 grams. The results are expressed in per cent (%) MPE, where the MPE value reflects the percentage reversal of pain threshold to that of a normal animal (100%). Table 4 below indicates results of this test with Compounds 8, 34 and 40 of the invention, administered i.p., in intrathecal and oral doses.

alpha2C receptor = biological target: T2, alpha2C receptor (Homo sapiens, UniProt P18825); experiment: Receptor Selection and Amplification Technology (RSAT) assay, alpha2C; format: cell-based; conditions: NIH-3T3 cells; for EC50: NA = not active at concentrations less than 10 micromolar, read-out: RSAT EC50 (nM) Alpha 2C; for fraction of activity of the standard (brimonidine) attained, Alpha 2C (number in parenthesis): ratio of maximal effect to that of standard full agonist brimonidine
T2 construct: expressed in transfected cells; host or cells: NIH-3T3
T2 sequence (P18825 1-462): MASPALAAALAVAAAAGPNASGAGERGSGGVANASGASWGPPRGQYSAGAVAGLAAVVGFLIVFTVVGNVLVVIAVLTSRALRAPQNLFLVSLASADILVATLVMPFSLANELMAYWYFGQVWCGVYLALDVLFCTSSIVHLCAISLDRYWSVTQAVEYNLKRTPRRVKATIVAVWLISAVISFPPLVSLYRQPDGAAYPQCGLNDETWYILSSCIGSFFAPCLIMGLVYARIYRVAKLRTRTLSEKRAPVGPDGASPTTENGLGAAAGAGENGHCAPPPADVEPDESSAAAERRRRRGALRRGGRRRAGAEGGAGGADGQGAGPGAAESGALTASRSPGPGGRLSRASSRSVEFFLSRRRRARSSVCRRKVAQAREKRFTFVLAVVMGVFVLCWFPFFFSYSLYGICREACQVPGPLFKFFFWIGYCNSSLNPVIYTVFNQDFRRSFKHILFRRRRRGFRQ
From the text: as §1, §2, §3, §4

| SMILES | EC50 (alpha2B receptor) [nM] | fraction of activity of the standard (brimonidine) attained, Alpha 2B (number in parenthesis) (alpha2B receptor) | % MPE ([1]; IP dose 10 μg/kg) [% MPE] | % MPE ([1]; IP dose 30 μg/kg) [% MPE] | % MPE ([1]; IP dose 100 μg/kg) [% MPE] | % MPE ([1]; IP dose 300 μg/kg) [% MPE] | % MPE ([1]; IP dose 1000 μg/kg) [% MPE] | % MPE ([1]; Intrathecal dose 30 μg) [% MPE] | % MPE ([1]; Intrathecal dose 100 μg) [% MPE] | % MPE ([1]; Intrathecal dose 300 μg) [% MPE] | EC50 (alpha2C receptor) [nM] | fraction of activity of the standard (brimonidine) attained, Alpha 2C (number in parenthesis) (alpha2C receptor) |
| --- | --- | --- | --- | --- | --- | --- | --- | --- | --- | --- | --- | --- |
| OCCNC(=S)NCC1CC=CCC1 (stereo not drawn) [Compound 8, 1-Cyclohex-3-enylmethyl-3-(2-hydroxy-ethyl)-thiourea] | 17 | (0.79) | 1.5 ± 0.9 | 47 ± 8.6 | 63 ± 9.1 | 56 ± 6.5 | 52 ± 8.4 | 0.02 ± 0.6 | 1.3 ± 0.6 | 20 ± 5.1 | – | – |
| CC1=CCCC1NC(=S)NCCO (stereo not drawn) [Compound 14, 1-(2-Hydroxy-ethyl)-3-(2-methyl-cyclopent-2-enyl)-thiourea] | 97 | (0.95) | – | – | – | – | – | – | – | – | 3000 | (0.3) |
| CCCCC1=C(CNC(=S)NCCO)CCC1 [Compound 25, 1-(2-Butyl-cyclopent-1-enylmethyl)-3-(2-hydroxy-ethyl)-thiourea] | > 2000 | (0.51) | – | – | – | – | – | – | – | – | 738 | (0.69) |
| CC1=C(CNC(=S)NCCO)CCC1 [Compound 27, 1-(2-Methyl-cyclopent-1-enylmethyl)-3-(2-hydroxy-ethyl)-thiourea] | 135 | (0.75) | – | – | – | – | – | – | – | – | 1730 | (0.3) |
| CC1=C(C)C(NC(=S)NCCO)CCC1 (stereo not drawn) [Compound 31, 1-(2,3-Dimethyl-cyclohex-2-enyl)-3-(2-hydroxy-ethyl)-thiourea] | 6 | (0.8) | – | – | – | – | – | – | – | – | 253 | (0.37) |
| CC1=CCCCC1NC(=S)NCCO (stereo not drawn) [Compound 33, 1-(2-Hydroxy-ethyl)-3-(2-methyl-cyclohex-2-enyl)-thiourea] | 12 | (0.71) | – | – | – | – | – | – | – | – | 251 | (0.98) |
| CCC1=CCCCC1NC(=S)NCCO (stereo not drawn) [Compound 34, 1-(2-Hydroxy-ethyl)-3-(2-ethyl-cyclohex-2-enyl)-thiourea] | 11 | (0.88) | 0.4 ± 1.0 | 48 ± 6.1 | 66 ± 11 | 96 ± 3.7 | – | – | – | – | 59 | (0.62) |
| OCCNC(=S)NC1C=CCCC1 (stereo not drawn) [Compound 35, 1-(Cyclohex-2-enyl)-3-(2-hydroxy-ethyl)-thiourea] | 73 | (0.58) | – | – | – | – | – | – | – | – | 630 | (0.4) |
